42 molecules from US20260297109A1, “COMPOUNDS AS SUMO ACTIVATING ENZYME INHIBITORS” (WIGEN BIOMEDICINE TECHNOLOGY (SHANGHAI) CO., LTD., priority 2022, published 2026) can be followed below.

In the first test the target is T1, SAE (Homo sapiens, UniProt Q9UBT2).
T1 construct: endogenous in cells; host or cells: HCT116
T1 sequence (Q9UBT2 1-640): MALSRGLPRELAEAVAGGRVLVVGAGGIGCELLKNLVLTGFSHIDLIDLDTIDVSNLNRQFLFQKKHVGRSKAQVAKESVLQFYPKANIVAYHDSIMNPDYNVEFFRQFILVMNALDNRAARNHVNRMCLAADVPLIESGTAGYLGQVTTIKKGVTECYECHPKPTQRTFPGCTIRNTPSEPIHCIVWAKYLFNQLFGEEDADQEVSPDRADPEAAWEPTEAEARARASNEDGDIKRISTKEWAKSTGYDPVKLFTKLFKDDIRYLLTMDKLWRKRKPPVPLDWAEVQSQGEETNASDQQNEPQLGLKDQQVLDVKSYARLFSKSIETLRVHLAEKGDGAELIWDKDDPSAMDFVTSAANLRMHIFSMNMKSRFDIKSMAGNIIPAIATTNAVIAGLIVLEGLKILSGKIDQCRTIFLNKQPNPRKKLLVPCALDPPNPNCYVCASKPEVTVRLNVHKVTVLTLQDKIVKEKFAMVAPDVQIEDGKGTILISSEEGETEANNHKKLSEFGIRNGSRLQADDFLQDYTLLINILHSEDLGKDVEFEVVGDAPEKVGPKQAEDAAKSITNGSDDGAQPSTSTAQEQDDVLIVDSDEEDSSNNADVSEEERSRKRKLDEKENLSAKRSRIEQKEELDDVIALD
T1 sequence (Q9UBE0 1-346): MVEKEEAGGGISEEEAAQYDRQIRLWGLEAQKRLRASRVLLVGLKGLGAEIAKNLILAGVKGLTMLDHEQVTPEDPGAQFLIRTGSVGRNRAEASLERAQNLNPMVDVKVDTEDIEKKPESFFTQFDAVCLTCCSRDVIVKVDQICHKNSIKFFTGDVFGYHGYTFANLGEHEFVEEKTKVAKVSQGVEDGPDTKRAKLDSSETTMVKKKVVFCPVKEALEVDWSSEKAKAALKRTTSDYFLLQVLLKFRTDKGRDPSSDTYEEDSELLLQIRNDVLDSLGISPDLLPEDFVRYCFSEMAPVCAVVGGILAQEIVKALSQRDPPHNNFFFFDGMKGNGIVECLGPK
Description: SUMO IF: in vitro inhibitory activity assay against SAE in HCT116 cells (SUMO-2/3 immunofluorescence). The class given is cell-based. Particulars: class symbols, 6 h at 37° C. The method in brief: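 SUMO-2/3 immunofluorescence (18H8 primary 1:400, FITC secondary 1:300) was read after 6 h compound exposure of HCT116 cells at 37 °C. Inhibition rate and IC50 derive from signal relative to DMSO-treated wells.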
A word on the IC50: it is the point on the concentration scale where inhibition reaches its midpoint. On to `N#Cc1ccc2c(c1)[C@@]1(C=Cc3sc(C(=O)c4cncnc4N[C@H]4C[C@H](O)[C@@H](COS(N)(=O)=O)[C@@H]4F)cc31)OCC2` [Compound 764], for which the IC50 was no more than 50 nM.

Consider `NS(=O)(=O)OC[C@H]1[C@H](F)[C@@H](Nc2ncncc2C(=O)c2cc3c(s2)CCC[C@]32NCCc3cc(F)c(Cl)c(F)c32)C[C@@H]1O` [Compound 676], for which the IC50 was no more than 50 nM.

In turn, `Cc1sc(C(=O)c2cncnc2N[C@H]2C[C@H](O)[C@@H](COS(N)(=O)=O)[C@@H]2F)cc1C1NCCc2cc(C#N)c(Cl)cc21` (stereo partly drawn) [Compound 249] yielded a half-inhibitory concentration (IC50) of 50 to 200 nM.

`NS(=O)(=O)OC[C@H]1[C@H](F)[C@@H](Nc2ncncc2C(=O)c2nc3c(s2)CCC[C@]32NCCc3ccc(Cl)cc32)C[C@@H]1O` [Compound 587] registered a concentration for half-maximal inhibition (IC50) of 50 to 200 nM.

For the molecule `CN1Cc2sc(C(=O)c3cncnc3N[C@H]3C[C@H](O)[C@@H](COS(N)(=O)=O)[C@@H]3F)cc2[C@@]2(C1)OCCc1ccc(Cl)cc12` [Compound 724], the IC50 was greater than 200 nM.

Regarding `Cc1sc(C(=O)c2cncnc2N[C@H]2C[C@H](O)[C@@H](CCS(N)(=O)=O)[C@@H]2F)cc1[C@@H]1NCCc2ccc(Cl)cc21` [Compound 991], the IC50 lay within 50 to 200 nM.

`NS(=O)(=O)OC[C@H]1[C@H](F)[C@@H](Nc2ncncc2C(=O)c2cc3c(s2)C(F)=CC32NCCc3ccc(F)cc32)C[C@@H]1O` (stereo partly drawn) [Compound 618] gave an IC50 of 50 to 200 nM.

`NS(=O)(=O)OC[C@H]1[C@H](F)[C@@H](Nc2ncncc2C(=O)c2cc3c(s2)COCC32NCCc3ccc(Cl)cc32)C[C@@H]1O` (stereo partly drawn) [Compound 103] had a 50% inhibitory concentration (IC50) of 50 to 200 nM.

`CC1Cc2ccc(Cl)cc2C2(C=Cc3sc(C(=O)c4cncnc4N[C@H]4C[C@H](O)[C@@H](COS(N)(=O)=O)[C@@H]4F)cc32)N1` (stereo partly drawn) [Compound 1056] displayed an IC50 of 50 to 200 nM.

The molecule `NS(=O)(=O)OC[C@H]1[C@H](F)[C@@H](Nc2ncncc2C(=O)c2cc3c(s2)COCC32NCCc3c(Cl)cc(Cl)cc32)C[C@@H]1O` (stereo partly drawn) [Compound 564] registered an IC50 of 50 to 200 nM.

`NS(=O)(=O)OC[C@H]1[C@H](F)[C@@H](Nc2ncncc2C(=O)c2cc3c(s2)C(F)(F)C[C@]32NCCc3ccc(F)cc32)C[C@@H]1O` [Compound 626] returned an IC50 of 50 to 200 nM.

Molecule `NS(=O)(=O)OC[C@H]1[C@H](F)[C@@H](Nc2ncncc2C(=O)c2cc3c(s2)CCC32NC3(CC3)Cc3ccc(Cl)cc32)C[C@@H]1O` (stereo partly drawn) [Compound 166] gave an IC50 of 50 to 200 nM.

For `NS(=O)(=O)OC[C@H]1[C@H](F)[C@@H](Nc2ncncc2C(=O)c2cc3c(s2)OC[C@@]32NCCc3ccccc32)C[C@@H]1O` [Compound 140], the half-maximal inhibitory concentration (IC50) was greater than 200 nM.

As for `NS(=O)(=O)OC[C@H]1[C@H](F)[C@@H](Nc2ncncc2C(=O)c2cc3c(s2)COCC32NCCc3cc(Cl)c(Cl)cc32)C[C@@H]1O` (stereo partly drawn) [Compound 561], the IC50 lay within 50 to 200 nM.

In turn, `NS(=O)(=O)OC[C@H]1[C@H](F)[C@@H](Nc2ncncc2C(=O)c2cc3c(s2)CSCC32NCCc3ccccc32)C[C@@H]1O` (stereo partly drawn) [Compound 294] returned an IC50 greater than 200 nM.

Take `Nc1sc(C(=O)c2cncnc2N[C@H]2C[C@H](O)[C@@H](COS(N)(=O)=O)[C@@H]2F)cc1C1NCCc2ccc(Cl)cc21` (stereo partly drawn) [Compound 264]: the IC50 was in the range of 50 to 200 nM.

For `Cc1sc(C(=O)c2cncnc2N[C@H]2C[C@H](O)[C@@H](COS(N)(=O)=O)[C@@H]2F)cc1C1NCCc2ccccc21` (stereo partly drawn) [Compound 229], the IC50 was greater than 200 nM.

Molecule `CN1Cc2sc(C(=O)c3cncnc3N[C@H]3C[C@H](O)[C@@H](COS(N)(=O)=O)[C@@H]3F)cc2C2(C1)OCCc1ccc(Cl)cc12` (stereo partly drawn) [Compound 723] gave a concentration for half-maximal inhibition (IC50) of no more than 50 nM.

With `NS(=O)(=O)OC[C@H]1[C@H](F)[C@@H](Nc2ncncc2C(=O)c2cc(C3NCCc4ccc(Cl)cc43)c(Cl)s2)C[C@@H]1O` (stereo partly drawn) [Compound 258], the IC50 lay within 50 to 200 nM.

`C#Cc1ccc2c(c1)[C@@]1(CCCc3sc(C(=O)c4cncnc4N[C@H]4C[C@H](O)[C@@H](COS(N)(=O)=O)[C@@H]4F)cc31)NCC2` [Compound 668]: the concentration for half-maximal inhibition (IC50) fell in the range of 50 to 200 nM.

With `CCN1Cc2sc(C(=O)c3cncnc3N[C@H]3C[C@H](O)[C@@H](COS(N)(=O)=O)[C@@H]3F)cc2C2(C1)OCCc1ccc(F)cc12` (stereo partly drawn) [Compound 726], the 50% inhibitory concentration (IC50) was 50 to 200 nM.

On to `Cc1sc(C(=O)c2cncnc2N[C@H]2C[C@H](O)[C@@H](COS(N)(=O)=O)[C@H]2F)cc1C1NCCc2cc(Cl)c(Cl)cc21` (stereo partly drawn) [Compound 247], for which the half-maximal inhibitory concentration (IC50) lay in the range of 50 to 200 nM.

Turning to `NS(=O)(=O)OC[C@H]1[C@H](F)[C@@H](Nc2ncncc2C(=O)c2cc3c(s2)OCCC32NCCc3ccc(Cl)cc32)C[C@@H]1O` (stereo partly drawn) [Compound 122], the IC50 lay in the range of 50 to 200 nM.

`Cc1sc(C(=O)c2cncnc2N[C@H]2C[C@H](O)[C@@H](COS(N)(=O)=O)[C@@H]2F)cc1C1NCC2(CC2)c2ccc(Cl)cc21` (stereo partly drawn) [Compound 265] gave a concentration for half-maximal inhibition (IC50) of 50 to 200 nM.

Molecule `NS(=O)(=O)OC[C@H]1[C@H](F)[C@@H](Nc2ncncc2C(=O)c2cc3c(s2)CCC[C@]32NCCc3cc(Cl)c(Cl)cc32)C[C@@H]1O` [Compound 672] displayed a concentration for half-maximal inhibition (IC50) of no more than 50 nM.

Turning to `NS(=O)(=O)OC[C@H]1[C@H](F)[C@@H](Nc2ncncc2C(=O)c2nc3c(s2)CCC[C@@]32NCCc3ccc(Cl)cc32)C[C@@H]1O` [Compound 586], the half-maximal inhibitory concentration (IC50) was greater than 200 nM.

Turning to `NS(=O)(=O)OC[C@H]1[C@H](F)[C@@H](Nc2ncncc2C(=O)c2cc3c(s2)C=C[C@@]32OCCc3ccccc32)C[C@@H]1O` [Compound 754], the concentration for half-maximal inhibition (IC50) is greater than 200 nM.

For the molecule `Cc1sc(C(=O)c2cncnc2N[C@H]2C[C@H](O)[C@@H](COS(N)(=O)=O)[C@@H]2F)cc1C1NCCc2ccc(F)cc21` (stereo partly drawn) [Compound 235], the 50% inhibitory concentration (IC50) is greater than 200 nM.

Regarding `NS(=O)(=O)OC[C@H]1[C@H](F)[C@@H](Nc2ncncc2C(=O)c2cc3c(s2)CCC32NCCc3ccc(F)cc32)C[C@@H]1O` (stereo partly drawn) [Compound 133], the half-maximal inhibitory concentration (IC50) was 50 to 200 nM.

Take `NS(=O)(=O)OC[C@H]1[C@H](F)[C@@H](Nc2ncncc2C(=O)c2cc3c(s2)CCC32NCCc3cc(Cl)c(F)cc32)C[C@@H]1O` (stereo partly drawn) [Compound 159]: the 50% inhibitory concentration (IC50) was 50 to 200 nM.

With `NS(=O)(=O)OC[C@H]1[C@H](F)[C@@H](Nc2ncncc2C(=O)c2cc3c(s2)C(F)(F)C[C@]32NCCc3ccc(Cl)cc32)C[C@@H]1O` [Compound 329], the IC50 lay in the range of 50 to 200 nM.

Molecule `CC1Cc2ccc(Cl)cc2C2(CCCc3sc(C(=O)c4cncnc4N[C@H]4C[C@H](O)[C@@H](COS(N)(=O)=O)[C@@H]4F)cc32)N1` (stereo partly drawn) [Compound 1023] gave a concentration for half-maximal inhibition (IC50) of 50 to 200 nM.

In turn, `[2H]C1([2H])Cc2ccc(Cl)cc2[C@@]2(C=Cc3sc(C(=O)c4cncnc4N[C@H]4C[C@H](O)[C@@H](COS(N)(=O)=O)[C@@H]4F)cc32)N1` [Compound 701] displayed an IC50 of no more than 50 nM.

Turning to `NS(=O)(=O)OC[C@H]1[C@H](F)[C@@H](Nc2ncncc2C(=O)c2nc3c(s2)COCC32NCCc3ccc(Cl)cc32)C[C@@H]1O` (stereo partly drawn) [Compound 588], the IC50 was greater than 200 nM.

With `N#Cc1ccc2c(c1)[C@]1(C=Cc3sc(C(=O)c4cncnc4N[C@H]4C[C@H](O)[C@@H](COS(N)(=O)=O)[C@@H]4F)cc31)OCC2` [Compound 763], the IC50 is greater than 200 nM.

The molecule `NS(=O)(=O)OC[C@H]1[C@H](F)[C@@H](Nc2ncncc2C(=O)c2cc3c(s2)CC[C@]32NCCc3ccncc32)C[C@@H]1O` [Compound 699] showed a 50% inhibitory concentration (IC50) of 50 to 200 nM.

Turning to `CC1CN[C@]2(C=Cc3sc(C(=O)c4cncnc4N[C@H]4C[C@H](O)[C@@H](COS(N)(=O)=O)[C@@H]4F)cc32)c2cc(Cl)ccc21` (stereo partly drawn) [Compound 1055], the half-maximal inhibitory concentration (IC50) is no more than 50 nM.

Turning to `NS(=O)(=O)OC[C@H]1[C@H](F)[C@@H](Nc2ncncc2C(=O)c2cc3c(s2)OCC32NCCc3ccc(Cl)cc32)C[C@@H]1O` (stereo partly drawn) [Compound 145], the half-maximal inhibitory concentration (IC50) was 50 to 200 nM.

As for `NS(=O)(=O)OC[C@H]1[C@H](F)[C@@H](Nc2ncncc2C(=O)c2cc3c(s2)C(F)(F)CC32NCCc3ccc(F)cc32)C[C@@H]1O` (stereo partly drawn) [Compound 624], the 50% inhibitory concentration (IC50) lay within 50 to 200 nM.

Staying with this test, now noted: numeric values, 6 h at 37° C.
Regarding `NS(=O)(=O)OC[C@H]1[C@H](F)[C@@H](Nc2ncncc2C(=O)c2cc3c(s2)COC[C@]32NCCc3ccc(Cl)cc32)C[C@@H]1O` [Compound 105], the half-inhibitory concentration (IC50) is 79.3 nM.

On to `Cc1sc(C(=O)c2cncnc2N[C@H]2C[C@H](O)[C@@H](COS(N)(=O)=O)[C@@H]2F)cc1[C@H]1NCCc2ccc(Cl)cc21` [Compound 234], for which the IC50 was greater than 1000 nM.

As to `NS(=O)(=O)OC[C@H]1[C@H](F)[C@@H](Nc2ncncc2C(=O)c2cc3c(s2)CN(C2CC2)C[C@@]32NCCc3ccc(Cl)cc32)C[C@@H]1O` [Compound 580], the half-maximal inhibitory concentration (IC50) is greater than 1000 nM.
